# Experimental data taken from US20060183221A1, “Method for neural differentiation of embryonic stem cells using protease passaging techniques” (priority 2003, published 2006).
# “Also recorded” adds a separate entry of the source.
# What was measured:
# [1] = tested on: seeded sfEBMs derived from domed HESC colonies; experiment: S18 treatment of seeded serum free embryoid bodies (sfEBMs), cell death by morphology and DAPI staining; format: cell-based, human
# Excerpt: sfEBMs were derived from domed HESC colonies, grown in suspension for 24 days with one passage, and seeded to polyornithine/laminin coated chamber slides in DMEM/F12, supplemented with 1×N2 (Gibco), and 1% FCS.
# Apoptosis in seeded serum free embryoid bodies was monitored by morphological observation of cell death and DAPI staining to reveal apoptotic nuclei. Apoptotic nuclei were observed as obviously fragmented and degenerating nuclei, with small punctuate patterns of DAPI staining. Rosette regions from essentially serum free embryoid bodies in suspension were passaged further in the same medium, either withdrawing S18 or culturing the embryoid bodies for an additional 4 to 8 days in the presence of S18. Rosette regions were then seeded onto polyornithine/laminin coated slides for analysis of proliferation and differentiation to neural lineages.
# Oct4 = Oct4 expression by immunoblotting in EB8 stage ES cells incubated with S18; format: cell-based, mouse
# Experimental: (§1) In vitro differentiating ES cells at stage EB8 were incubated for 24-48 hours with 75 μM S18, or 35 μM N-acyl sphingosine or other ceramide analogs. Protein was isolated from cells incubated with S18 for 24 hours and from untreated cells, separated by SDS-PAGE, and the expression of Oct4 was analyzed by immunoblotting.
# [2] = tested on: differentiating mouse ES cells (ES-J1); experiment: Apoptosis (TUNEL staining) in differentiating mouse ES cells incubated with ceramide analogs; format: cell-based; settings: for cell death: 20 hours with 75 μM S18; for TUNEL stained cells: 15 hours with 75 μM S16 or S18, or 35 μM C2-ceramide
# Experimental: In vitro neural differentiation of mouse ES cells (ES-J1, ES-D3) followed a serum deprivation protocol as described previously (Hancock, et al., 2000, Biochem. Biophys. Res. Commun. 271: 418-421). The differentiation stages are outlined in FIG. 2. Briefly, ES cells were grown on gamma-irradiated feeder fibroblasts for four days in Knockout DMEM/15% Knockout serum replacement, supplemented with ESGRO (LIF; Chemicon; Cat No. ESG1106) at a concentration of […] medium. ES cells were then grown for another four days on gelatin-coated bacterial culture dishes without a fibroblast feeder layer, and were then grown for three days in Knockout DMEM/15% heat-inactivated ES qualified Fetal Bovine Serum, supplemented with 10^3 units LIF per ml of medium. Upon trypsinization, ES cells were transferred to bacterial culture dishes without gelatin, and embryoid body (EB) formation was induced for four days in Knockout DMEM/10% heat-inactivated ES qualified FBS without LIF (EB4 stage). On the fifth day, floating and loosely attached EBs were rinsed off and transferred to tissue culture dishes. The EBs were allowed to attach to the tissue culture dish surface by incubation for another 24 hours in Knockout DMEM with 10% heat-inactivated ES qualified fetal bovine serum. Neural differentiation due to serum deprivation was induced by cultivation of the EBs for three days in DMEM/F12 (50/50), supplemented with 1×N2 (Invitrogen/Life Technologies; Cat No. 17502, dilution of 1: 100) but without serum (EB8 stage). Serum-deprived EBs were then trypsinized, plated on poly-L-ornithine/laminin-coated tissue culture dishes and grown for four days in DMEM/F12 (50/50), supplemented with N2 and 10 ng/ml FGF-2, but without serum. his incubation period is referred to as neuroprogenitor (NP) stage due to commitment of neuroepithelial precursor cells to neuroprogenitor cells. These cells have committed during the EB stages and were expanded during the NP stage. NPs grown for 48 hours upon replating of trypsinized EBs were referred to as the NP2 stage. On the fifth day of NP formation, the medium was changed to Neurobasal (Invitrogen/Life Technologies; Cat No. 21103-049), with 5% heat-inactivated FBS, and the cells were incubated for another seven days. During this time, NPs fully differentiate to glial cells and neurons. Cells cultured for 24 hours or 96 hours upon changing the medium were referred to as the D1 or D4 stage, respectively.
# ES cells were cultured and differentiated to the EB4, EB8, NP2, or D4 stage following the protocol as described above. The ceramide analog S18 was dissolved in ethanol at a concentration of 100 mM and then added to the cells at a final concentration of 75 μM in medium. The cells at the EB8 stage were incubated for 48 hours in the presence of the ceramide analog and were then transplanted into mouse brains.
# Differentiating ES cells were grown on cover slips and fixed with 4% paraformaldehyde in phosphate-buffered saline (PBS). Fixed cells were permeabilized with 0.5% Triton X-100 in PBS for 5 minutes at room temperature and unspecific binding sites were saturated by incubation with 3% ovalbumin in PBS for 1 hour at 37° C. The cover slips were then incubated with 5 μg/ml primary antibody (anti-ceramide clone 15B4 mouse IgM, Alexis; anti-PAR-4 rabbit IgG, Santa Cruz; anti-PCNA rabbit IgG, Santa Cruz; anti-nestin clone 401 rat IgG, BD Pharmingen) in 0.1% ovalbumin/PBS, followed by incubation with the appropriate fluorescence-labeled secondary antibody (5 μg/ml Alexa 546 conjugated anti-mouse IgG, Molecular Probes; Alexa 488 conjugated anti-rabbit IgG, Molecular Probes, Cy3 conjugated anti-mouse IgM, Jackson) for 2 hours at 37° C. The nuclei were stained by treatment with 2 μg/ml Hoechst 33258 in PBS for 30 minutes at room temperature. Apoptotic nuclei were stained using the fluorescein FragEL TUNEL assay (Oncogene) according to the manufacturer's instructions. […]
# EB8-derived cells = experiment: Injection of ceramide analog treated EB8-derived stem cells into mouse brains, teratoma formation; format: in vivo; settings: EB8-derived cells treated with 75 μM S18 for 24-48 hours, injected into brain of 8-10 day old C57BL6 mice, analysed after 7-21 days
# Experimental: as §1
# Prior to injection into the mouse brain, ES cells were labeled with Vybrant-DiI (rhodamine fluorescence) for permanent vital staining and were mixed with India ink in order to track the injection channel and cell migration/tissue integration. 1×10^4 of the untreated ES-J1 cells were injected, while 2×10^4 of the S18-treated cells were injected in order to control for the percentage of cells lost to apoptosis. The ES cells were injected into the right brain hemisphere (bregma −1.5 mm, 1 mm lateral of central suture, 2.0 mm deep) of 8-10 day old C57BL6 mice using a Hamilton syringe. After 7-21 days, the mice were sacrificed, the brain isolated and fixed with 10% PBS-buffered formalin. The brains were Vibratome sectioned at 100 μm. The distribution of the injected cells was determined by fluorescence microscopy.
structure (smiles),measurement,setting,value
"CCCCCCCC/C=C\CCCCCCCC(=O)NC(CO)CO [S18, N-(2-hydroxy-1-(hydroxymethyl)ethyl)-oleoylamide]",time until the effect was observed,"[1]; 6, 8 or 10 μM S18",≤ 24 h
same,effect on neural rosette structures,"[1]; 6, 8 or 10 μM S18 for 36 hours",did not appear to be adversely affected
same,induction of apoptosis in the culture,"[1]; 6, 8 or 10 μM S18 for 36 hours",induced apoptosis of a large proportion of the culture
same,cell death,[1]; 36 hours exposure to 6 μM S18,a high proportion of cells within these cultures have been killed
same,cell death,[1]; 36 hours exposure to 8 μM S18,a high degree of cell death is apparent
same,Oct4 protein level by immunoblot relative to untreated control cells,"Oct4; 75 μM S18 for 24 hours, SDS-PAGE immunoblot",25%
same,decrease in Oct4 protein levels,Oct4; after treatment with S18,75%
same,cell death,[2]; EB8 and NP2 stages,high degree of cell death
same,TUNEL stained cells,[2]; EB8 stage,45±10%
same,TUNEL stained cells,[2]; NP2 stage,70±10%
same,cell death,[2]; differentiated neurons,unaffected
same,teratoma formation,EB8-derived cells,No teratomas were detected; also recorded: did not show the formation of teratomas
